{"source": "patent EP0038629A1", "about": "“Virazole derivatives, process for their preparation and use as antiviral agents” (priority 1980, dated 1981)", "key": {"[1]": {"tested_on": "influenza A/Port Chalmers/l/73 (H3N2) virus", "assay": "Diffusion test (plaque inhibition zone)", "format": "cell-based", "conditions": "diameter of plaque-free zone, 0.02 ml of 1 mg/ml solution in 6 mm well, infected MDCK cell monolayers; for zone of inhibition at 1000 µg/mL: Influenza A virus, H3N2, read-out: Active Zone", "experimental": "Diffusion Test. 10 mg/ml solutions of the compounds in water were diluted to a concentration of 1 mg/ml with Eagle's minimum essential medium and 0.02 ml introduced into wells 6mm in diameter cut into an agar layer above influenza A/Port Chalmers/l/73 (H3N2) virus infected MDCK cell monolayers. An infection level giving an even distribution of subconfluent plaques was used. The diameters of zones around the wells free from virus induced plaques (inhibition zones) and diameters of zones in which cytotoxicity was apparent are reported."}, "[2]": {"tested_on": "influenza A/Port Chalmers/1/73 (H3N2) virus", "assay": "Plaque reduction assay", "format": "cell-based", "conditions": "MDCK cells; for inhibition at 1.3 µM / inhibition at 4.1 µM / inhibition at 13 µM / inhibition at 41 µM / inhibition at 130 µM / inhibition at 410 µM: Influenza A virus, H3N2, read-out: % Plaque Reduction at Concentration Given", "excerpt": "More accurate quantitation of antiviral activity was achieved by incorporated of concentrations of the test compound varying from 1.3 x 10^-6M to 4.1 x 10^-4M into the agar overlay above the influenza A/Port Chalmers/1/73 (H3N2) virus infected MDCK cell monolayers. The % reduction in the number of virus induced plaques at each compound concentration is given below."}, "MDCK cell monolayers": {"tested_on": "MDCK cell monolayers", "conditions": "diameter of zone with apparent cytotoxicity; 0.02 ml of 1 mg/ml solution in 6 mm well"}}, "data": [{"compound": "1-[β-D-(5'-succinyl-2',3'-carbonyl)ribofuranosyl]-3-carbamoyl-1,2,4-triazole amantadine salt [Compound 6]", "values": [{"measurement": "Active Zone", "setting": "[1]", "value": 55, "unit": "mm"}, {"measurement": "% Plaque Reduction at Concentration Given", "setting": "[2]; 0.13 x 10^-5 M in agar overlay, 1.3 µM", "value": 44, "unit": "%"}, {"measurement": "% Plaque Reduction at Concentration Given", "setting": "[2]; 0.41 x 10^-5 M in agar overlay, 4.1 µM", "value": 63, "unit": "%"}, {"measurement": "% Plaque Reduction at Concentration Given", "setting": "[2]; 1.3 x 10^-5 M in agar overlay, 13 µM", "value": 89, "unit": "%"}, {"measurement": "% Plaque Reduction at Concentration Given", "setting": "[2]; 4.1 x 10^-5 M in agar overlay, 41 µM", "value": 100, "unit": "%"}, {"measurement": "% Plaque Reduction at Concentration Given", "setting": "[2]; 13 x 10^-5 M in agar overlay, 130 µM", "value": 100, "unit": "%"}, {"measurement": "% Plaque Reduction at Concentration Given", "setting": "[2]; 41 x 10^-5 M in agar overlay, 410 µM", "value": 100, "unit": "%"}, {"measurement": "Toxic Zone", "setting": "MDCK cell monolayers", "value": 0, "unit": "mm"}]}, {"compound": "NC(=O)c1ncn([C@@H]2O[C@H](CO)[C@@H](O)[C@H]2O)n1", "note": "[Compound 1, 1-β-D-ribofuranosyl-3-carbamoyl-1,2,4-triazole, reference compound]", "values": [{"measurement": "zone of inhibition at 1000 µg/mL", "setting": "[1]", "value": 28, "unit": "mm"}, {"measurement": "inhibition at 1.3 µM", "setting": "[2]; 0.13 x 10^-5 M in agar overlay", "value": 0, "unit": "%"}, {"measurement": "inhibition at 4.1 µM", "setting": "[2]; 0.41 x 10^-5 M in agar overlay", "value": 43, "unit": "%"}, {"measurement": "inhibition at 13 µM", "setting": "[2]; 1.3 x 10^-5 M in agar overlay", "value": 94, "unit": "%"}, {"measurement": "inhibition at 41 µM", "setting": "[2]; 4.1 x 10^-5 M in agar overlay", "value": 100, "unit": "%"}, {"measurement": "inhibition at 130 µM", "setting": "[2]; 13 x 10^-5 M in agar overlay", "value": 100, "unit": "%"}, {"measurement": "inhibition at 410 µM", "setting": "[2]; 41 x 10^-5 M in agar overlay", "value": 100, "unit": "%"}, {"measurement": "Toxic Zone", "setting": "MDCK cell monolayers", "value": 0, "unit": "mm"}]}, {"compound": "NC(=O)c1ncn([C@@H]2O[C@H](COC(=O)CCC(=O)O)[C@H]3OC(=O)O[C@H]32)n1", "note": "[Compound 5, 1-[β-D-(5'-succinyl-2',3'-carbonyl)ribofuranosyl]-3-carbamoyl-1,2,4,-triazole]", "values": [{"measurement": "zone of inhibition at 1000 µg/mL", "setting": "[1]", "value": 17, "unit": "mm"}, {"measurement": "inhibition at 1.3 µM", "setting": "[2]; 0.13 x 10^-5 M in agar overlay", "value": 0, "unit": "%"}, {"measurement": "inhibition at 4.1 µM", "setting": "[2]; 0.41 x 10^-5 M in agar overlay", "value": 0, "unit": "%"}, {"measurement": "inhibition at 13 µM", "setting": "[2]; 1.3 x 10^-5 M in agar overlay", "value": 0, "unit": "%"}, {"measurement": "inhibition at 41 µM", "setting": "[2]; 4.1 x 10^-5 M in agar overlay", "value": 0, "unit": "%"}, {"measurement": "inhibition at 130 µM", "setting": "[2]; 13 x 10^-5 M in agar overlay", "value": 0, "unit": "%"}, {"measurement": "inhibition at 410 µM", "setting": "[2]; 41 x 10^-5 M in agar overlay", "value": 0, "unit": "%"}, {"measurement": "Toxic Zone", "setting": "MDCK cell monolayers", "value": 0, "unit": "mm"}]}]}
